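In this assay, cells in 96-well plates receive the compound at five concentrations for 48 hours. Endpoints are linearly interpolated between the surrounding concentrations. Abbreviation: GI50, concentration required for 50% inhibition of growth.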 Activity calls are given as the source filed them. Rule as the data show it: active = GI50 up to about 1.1 µM and inactive = higher.
What was measured:
Assay in all cases: DTP human tumour cell line panel, 48 h
[1] = test system: ACHN
[2] = test system: HL-60
[3] = test system: 786-0
[4] = test system: MCF7
[5] = test system: MDA-N
[6] = test system: SN12C
[7] = test system: M14
[8] = test system: KM12
[9] = test system: OVCAR-5
[10] = test system: COLO 205
[11] = test system: HCT-15
[12] = test system: HOP-62
[13] = test system: IGROV-1
[14] = test system: LOX IMVI
[15] = test system: A549
[16] = test system: RXF 393
[17] = test system: NCI-H522
[18] = test system: K562
[19] = test system: SK-OV-3
[20] = test system: UACC-62

| Compound | GI50 [1] | GI50 [2] | GI50 [3] | GI50 [4] | GI50 [5] | GI50 [6] | GI50 [7] | GI50 [8] | GI50 [9] | GI50 [10] | GI50 [11] [µM] | GI50 [12] | GI50 [13] | GI50 [14] | GI50 [15] | GI50 [16] | GI50 [17] | GI50 [18] | GI50 [19] | GI50 [20] |
| --- | --- | --- | --- | --- | --- | --- | --- | --- | --- | --- | --- | --- | --- | --- | --- | --- | --- | --- | --- | --- |
| N/C(COc1ccc(Cl)cc1)=N\NC(=O)c1ccncc1 | > 100 µM (inactive) | > 100 µM (inactive) | 54.3 µM (inactive) | > 100 µM (inactive) | > 100 µM (inactive) | > 100 µM (inactive) | > 100 µM (inactive) | > 100 µM (inactive) | > 100 µM (inactive) | > 100 µM (inactive) | 55.6 | > 100 µM (inactive) | > 100 µM (inactive) | 38.4 µM (inactive) | > 100 µM (inactive) | 35.9 µM (inactive) | > 100 µM (inactive) | > 100 µM (inactive) | > 100 µM (inactive) | > 100 µM (inactive) |
| CCC(=O)Nc1ccc(NC(C#N)c2cccc(Oc3ccccc3)c2)cc1 (stereo not given) | 32.7 µM (inactive) | 13.5 µM (inactive) | 35.5 µM (inactive) | 35.2 µM (inactive) | 34.4 µM (inactive) | 51.8 µM (inactive) | 40.3 µM (inactive) | 58.6 µM (inactive) | > 100 µM (inactive) | 40.4 µM (inactive) | 45 | 49.7 µM (inactive) | 48.2 µM (inactive) | 21.4 µM (inactive) | 62.5 µM (inactive) | 38.6 µM (inactive) | 48 µM (inactive) | 27.5 µM (inactive) | > 100 µM (inactive) | 52 µM (inactive) |
| CN(C)/C=C1\CCc2ccc([N+](=O)[O-])cc2C1=O | > 100 µM (inactive) | 25.7 µM (inactive) | 48.6 µM (inactive) | 26 µM (inactive) | 19.2 µM (inactive) | 18.3 µM (inactive) | 89.9 µM (inactive) | 55.8 µM (inactive) | > 100 µM (inactive) | 25.5 µM (inactive) | 44 | > 100 µM (inactive) | > 100 µM (inactive) | 19.6 µM (inactive) | > 100 µM (inactive) | > 100 µM (inactive) | > 100 µM (inactive) | 24.4 µM (inactive) | > 100 µM (inactive) | 24.5 µM (inactive) |
| Cc1ccc([N+](=O)[O-])cc1S(=O)(=O)Nc1ccc(C(=O)/C=C/c2cccs2)cc1 | 29.4 µM (inactive) | 28.3 µM (inactive) | 18.4 µM (inactive) | 15.7 µM (inactive) | 25.2 µM (inactive) | 24.2 µM (inactive) | 20.1 µM (inactive) | 16.6 µM (inactive) | 31.5 µM (inactive) | 24.1 µM (inactive) | 23.4 | 22.1 µM (inactive) | 36.6 µM (inactive) | 20.7 µM (inactive) | 91.6 µM (inactive) | 17.7 µM (inactive) | 19.2 µM (inactive) | 29 µM (inactive) | 44.1 µM (inactive) | 16.3 µM (inactive) |
| COc1ccc(-c2c(C#N)c(-c3ccccc3)n(NS(=O)(=O)c3ccccc3)c(=O)c2C#N)cc1 | > 100 µM (inactive) | 60.3 µM (inactive) | > 100 µM (inactive) | 50.5 µM (inactive) | > 100 µM (inactive) | > 100 µM (inactive) | > 100 µM (inactive) | > 100 µM (inactive) | > 100 µM (inactive) | > 100 µM (inactive) | > 100 | 95.1 µM (inactive) | 36.3 µM (inactive) | 60.4 µM (inactive) | > 100 µM (inactive) | 76.4 µM (inactive) | 20.5 µM (inactive) | 65.9 µM (inactive) | > 100 µM (inactive) | 79.8 µM (inactive) |
| CC(=N)OC1CC2CCC1(C)C2(C)C (stereo not given) | > 100 µM (inactive) | > 100 µM (inactive) | > 100 µM (inactive) | > 100 µM (inactive) | > 100 µM (inactive) | > 100 µM (inactive) | > 100 µM (inactive) | > 100 µM (inactive) | > 100 µM (inactive) | > 100 µM (inactive) | > 100 | > 100 µM (inactive) | > 100 µM (inactive) | > 100 µM (inactive) | > 100 µM (inactive) | > 100 µM (inactive) | > 100 µM (inactive) | > 100 µM (inactive) | > 100 µM (inactive) | > 100 µM (inactive) |
| COc1ccc(-c2nc3ccc(C)cc3o2)c(OC)c1 | 33 µM (inactive) | 20.4 µM (inactive) | 21.4 µM (inactive) | 30 µM (inactive) | 23.9 µM (inactive) | 26.5 µM (inactive) | 18.2 µM (inactive) | 19.2 µM (inactive) | 14.9 µM (inactive) | 20.7 µM (inactive) | 22.5 | 26.8 µM (inactive) | 20.8 µM (inactive) | 16.6 µM (inactive) | 4.76 µM (inactive) | 22.5 µM (inactive) | 18.8 µM (inactive) | 22.1 µM (inactive) | 41.5 µM (inactive) | 23.5 µM (inactive) |

Reference: ChEMBL document CHEMBL1201862, “PubChem BioAssay data set” (2004)
